In US20240228499A1, “MASP-2 INHIBITORS AND METHODS OF USE” (Omeros Corporation, priority 2022, published 2024):
Counter-ions that a name gives are not always drawn.

Key:
MASP-2 (CCP1-CCP2-SP) = target: T1, MASP-2 (CCP1-CCP2-SP) (Homo sapiens, UniProt O00187); experiment: Enzymatic assay for MASP-2 inhibitory activity (fluorogenic substrate); assay type: biochemical; details: room temperature, 20 mM Hepes pH 7.4, 20 min
T1 construct: 15 μL of Enzyme MASP-2 (CCP1-CCP2-SP) in Assay Buffer
Protocol: The MASP-2 assay utilizes a fluorogenic substrate, based on the cleavage site for its natural substrate C2. The assay was run at room temperature in an assay buffer containing 20 mM HEPES, pH 7.4, 140 mM NaCl and 0.1% Tween 20. Assay parameters were adjusted such that the assay was linear with respect to time, enzyme, and substrate concentrations. Under the optimized assays conditions, IC50 values were equivalent to Ki values, except in the few cases of “tight binding” inhibitors. Cases of “tight binding” or possible “slow binding” inhibitors were handled by the methods described in Copeland R. A. (2013) Evaluation of Enzyme Inhibitors in Drug Discovery. 2nd Ed., John Wiley and Sons, Inc., Chapters 5-7.
The MASP-2 assay protocol was carried out as follows. Test compounds were serially diluted in DMSO and then 100 nL of each dilution was transferred to the assay plate(s). 10 μL of Assay Buffer was added, followed by 15 μL of Enzyme MASP-2 (CCP1-CCP2-SP) in Assay Buffer. 15 μL of Substrate in Assay Buffer was then added and the mixture was mixed to start the reaction. After 20 min at room temperature, 15 μL of a stop solution (0.1 M acetic acid) was added, the sample was mixed, and the plates were read on a SpectraMax i3× Microplate Reader with the data exported as an Excel file. Each assay plate included a “no inhibitor” (DMSO only) control, a “no enzyme” control, and a reference inhibitor control. % Activity values=100*(average test comp. fluorescence−average “no enzyme” fluorescence)/(average “DMSO only” fluorescence−average “no enzyme” fluorescence). IC50 and Ki replicate values were very reproducible, with values well within +2-fold.

human a-thrombin = target: T2, human a-thrombin (Homo sapiens, UniProt P00734); experiment: Enzymatic assay for thrombin (fluorogenic peptide substrate Boc-VPR-AMC); assay type: biochemical; details: room temperature, 20 mM Hepes pH 7.4, 20 min
T2 construct: enzyme (human a-thrombin (BioPharm® Lab.)); purchased BioPharm Lab
Protocol: The thrombin assay utilizes a fluorogenic peptide substrate (Boc-VPR-AMC (R&D Systems) and was run at room temperature in an assay buffer containing 20 mM Hepes, pH 7.4, 140 mM NaCl and 0.1% Tween 20. Assay parameters were adjusted such that the assay was linear with respect to time, enzyme, and substrate concentrations. Under these optimized assays conditions, IC50 values were equivalent to Ki values, except in a few cases of “tight binding” inhibitors. Cases of “tight binding” or possible “slow binding” inhibitors were handled by the methods described in Copeland R.A. (2013) Evaluation of Enzyme Inhibitors in Drug Discovery. 2nd Ed. John Wiley and Sons, Inc., Chapters 5-7.
The thrombin assay protocol was carried out as follows. Test compounds were serially diluted in DMSO and then 100 nL of each dilution was transferred to the assay plate(s). 10 μL of Assay Buffer was added, followed by 15 μL of enzyme (human a-thrombin (BioPharm® Lab.)) in assay buffer. 15 μL of substrate in assay buffer was then added and the sample mixed to start the reaction. After 20 min at room temperature, 15 μL of a stop solution (0.1 M acetic acid) was added, the sample was mixed, and the plates were read on a SpectraMax® i3× Microplate Reader with the data exported as Excel files. Each assay plate included a “no inhibitor” (DMSO only) control, a “no enzyme” control, and a reference inhibitor control. % Activity values=100*(ave. test comp. fluorescence−ave. “no enz” fluorescence)/(ave. “DMSO only” fluorescence−ave. “no enz” fluorescence). IC50 and Ki values were very reproducible, with values falling well within +2-fold.

T1 sequence (O00187 287-686 limits assumed): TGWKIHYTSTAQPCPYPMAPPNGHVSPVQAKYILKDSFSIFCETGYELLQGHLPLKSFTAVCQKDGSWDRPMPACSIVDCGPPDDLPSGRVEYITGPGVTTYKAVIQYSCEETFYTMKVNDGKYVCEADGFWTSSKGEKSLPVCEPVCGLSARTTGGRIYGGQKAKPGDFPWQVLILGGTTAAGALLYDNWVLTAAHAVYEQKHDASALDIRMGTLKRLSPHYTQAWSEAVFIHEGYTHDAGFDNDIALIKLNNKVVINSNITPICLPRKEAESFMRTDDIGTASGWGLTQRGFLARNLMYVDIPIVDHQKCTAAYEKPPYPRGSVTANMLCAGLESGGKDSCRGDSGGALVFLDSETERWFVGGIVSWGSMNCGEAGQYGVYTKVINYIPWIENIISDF

Row | SMILES | Ki (MASP-2 (CCP1-CCP2-SP)) [µM] | Ki (human a-thrombin) [µM]
1 | Cc1cc(C)cc(CNc2cnc3n(c2=O)[C@H](C(=O)NCc2cc4c(s2)CNC4)CC3)c1 [Compound 21, (S)—N-((5,6-dihydro-4H-thieno[2,3-c]pyrrol-2-yl)methyl)-3-((3,5-dimethylbenzyl)amino)-4-oxo-4,6,7,8-tetrahydropyrrolo[1,2-a]pyrimidine-6-carboxamide, trifluoroacetate] | < 0.5 | 2.5 to 10
2 | Cc1cc(C)cc(CNc2cnc3n(c2=O)[C@H](C(=O)NCc2cccnc2C)CC3)c1 [Compound 23, (S)-3-((3,5-dimethylbenzyl)amino)-N-((2-methylpyridin-3-yl)methyl)-4-oxo-4,6,7,8-tetrahydropyrrolo[1,2-a]pyrimidine-6-carboxamide, trifluoroacetate] | 2.5 to 10 | > 25
3 | Cc1nc(N)ccc1CNC(=O)[C@@H]1CCc2ncc(NCc3cnn(-c4ccccc4)c3)c(=O)n21 [Compound 24, (S)—N-((6-amino-2-methylpyridin-3-yl)methyl)-4-oxo-3-(((1-phenyl-1H-pyrazol-4-yl)methyl)amino)-4,6,7,8-tetrahydropyrrolo[1,2-a]pyrimidine-6-carboxamide, trifluoroacetate] | < 0.5 | 10 to 25
4 | CCc1cccc(CNc2cnc3n(c2=O)[C@H](C(=O)NCc2ccc(N)nc2C)CC3)c1 [Compound 26] | < 0.5 | 0.5 to 2.5
5 | Cc1nc(N)ccc1CNC(=O)[C@@H]1CCc2ncc(NCc3ccccc3C(F)F)c(=O)n21 [Compound 27, (S)—N-((6-amino-2-methylpyridin-3-yl)methyl)-3-((2-(difluoromethyl)benzyl)amino)-4-oxo-4,6,7,8-tetrahydropyrrolo[1,2-a]pyrimidine-6-carboxamide, di-trifluoroacetate] | < 0.5 | 0.5 to 2.5
6 | Cc1nc(N)ccc1CNC(=O)[C@@H]1CCc2ncc(NCc3cc(F)ccc3F)c(=O)n21 [Compound 28, (S)-N-((6-amino-2-methylpyridin-3-yl)methyl)-3-((2,5-difluorobenzyl)amino)-4-oxo-4,6,7,8-tetrahydropyrrolo[1,2-a]pyrimidine-6-carboxamide, di-trifluoroacetate] | < 0.5 | 0.5 to 2.5
7 | Cc1cc(CNc2cnc3n(c2=O)[C@H](C(=O)NCc2ccc(N)nc2C)CC3)cc(C(F)(F)F)c1 [Compound 29, (S)-N-((6-amino-2-methylpyridin-3-yl)methyl)-3-((3-methyl-5-(trifluoromethyl)benzyl)amino)-4-oxo-4,6,7,8-tetrahydro-pyrrolo[1,2-a]pyrimidine-6-carboxamide, di-trifluoroacetate] | < 0.5 | 0.5 to 2.5
8 | Cc1cccc(CNc2cnc3n(c2=O)[C@H](C(=O)NCc2ccc(N)nc2C)CC3)c1C [Compound 30, (S)-N-((6-amino-2-methylpyridin-3-yl)methyl)-3-((2,3-dimethylbenzyl)amino)-4-oxo-4,6,7,8-tetrahydropyrrolo[1,2-a]pyrimidine-6-carboxamide, trifluoroacetate] | < 0.5 | 0.5 to 2.5
9 | Cc1ccc(F)cc1CNc1cnc2n(c1=O)[C@H](C(=O)NCc1ccc(N)nc1C)CC2 [Compound 31, (S)-N-((6-amino-2-methylpyridin-3-yl)methyl)-3-((5-fluoro-2-methylbenzyl)amino)-4-oxo-4,6,7,8-tetrahydropyrrolo[1,2-a]pyrimidine-6-carboxamide, di-trifluoroacetate] | < 0.5 | 0.5 to 2.5
10 | Cc1nc(N)ccc1CNC(=O)[C@@H]1CCc2ncc(NCc3c(F)cccc3F)c(=O)n21 [Compound 32, (S)-N-((6-amino-2-methylpyridin-3-yl)methyl)-3-((2,6-difluorobenzyl)amino)-4-oxo-4,6,7,8-tetrahydropyrrolo[1,2-a]pyrimidine-6-carboxamide, di-trifluoroacetate] | < 0.5 | 10 to 25
11 | Cc1cccc(CNc2cnc3n(c2=O)[C@H](C(=O)NCc2ccc(N)nc2C)CC3)c1F [Compound 33, (S)-N-((6-amino-2-methylpyridin-3-yl)methyl)-3-((2-fluoro-3-methylbenzyl)amino)-4-oxo-4,6,7,8-tetrahydropyrrolo[1,2-a]pyrimidine-6-carboxamide, di-trifluoroacetate] | < 0.5 | 0.5 to 2.5
12 | Cc1cc(F)cc(CNc2cnc3n(c2=O)[C@H](C(=O)NCc2ccc(N)nc2C)CC3)c1 [Compound 34, (S)-N-((6-amino-2-methylpyridin-3-yl)methyl)-3-((3-fluoro-5-methylbenzyl)amino)-4-oxo-4,6,7,8-tetrahydropyrrolo[1,2-a]pyrimidine-6-carboxamide, di-trifluoroacetate] | < 0.5 | < 0.5
13 | COc1c(F)cc(F)cc1CNc1cnc2n(c1=O)[C@H](C(=O)NCc1ccc(N)nc1C)CC2 [Compound 35, (S)-N-((6-amino-2-methylpyridin-3-yl)methyl)-3-((3,5-difluoro-2-methoxybenzyl)amino)-4-oxo-4,6,7,8-tetrahydropyrrolo[1,2-a]pyrimidine-6-carboxamide, trifluoroacetate] | < 0.5 | 0.5 to 2.5
14 | COc1c(F)ccc(F)c1CNc1cnc2n(c1=O)[C@H](C(=O)NCc1ccc(N)nc1C)CC2 [Compound 36, (S)-N-((6-amino-2-methylpyridin-3-yl)methyl)-3-((3,6-difluoro-2-methoxybenzyl)amino)-4-oxo-4,6,7,8-tetrahydropyrrolo[1,2-a]pyrimidine-6-carboxamide, di-trifluoroacetate] | < 0.5 | 2.5 to 10
15 | Cc1nc(N)ccc1CNC(=O)[C@@H]1CCc2ncc(NCc3cccc(OC4CC4)c3)c(=O)n21 [Compound 37, (S)-N-((6-amino-2-methylpyridin-3-yl)methyl)-3-((3-cyclopropoxybenzyl)amino)-4-oxo-4,6,7,8-tetrahydropyrrolo[1,2-a]pyrimidine-6-carboxamide, trifluoroacetate] | < 0.5 | < 0.5
16 | Cc1nc(N)ccc1CNC(=O)[C@@H]1CCc2ncc(NCc3cc(C(F)(F)F)ccc3F)c(=O)n21 [Compound 38, (S)-N-((6-amino-2-methylpyridin-3-yl)methyl)-3-((2-fluoro-5-(trifluoromethyl)benzyl)amino)-4-oxo-4,6,7,8-tetrahydro-pyrrolo[1,2-a]pyrimidine-6-carboxamide, di-trifluoroacetate] | < 0.5 | 2.5 to 10
17 | Cc1nc(N)ccc1CNC(=O)[C@@H]1CCc2ncc(NCc3cccc(OC(F)(F)F)c3F)c(=O)n21 [Compound 39, (S)-N-((6-amino-2-methylpyridin-3-yl)methyl)-3-((2-fluoro-3-(trifluoromethoxy)benzyl)amino)-4-oxo-4,6,7,8-tetrahydro-pyrrolo[1,2-a]pyrimidine-6-carboxamide, di-trifluoroacetate] | < 0.5 | 0.5 to 2.5
18 | Cc1nc(N)ccc1CNC(=O)[C@@H]1CCc2ncc(NCc3cccc(-n4cccn4)c3)c(=O)n21 [Compound 40, (S)-3-((3-(1H-pyrazol-1-yl)benzyl)amino)-N-((6-amino-2-methylpyridin-3-yl)methyl)-4-oxo-4,6,7,8-tetrahydropyrrolo[1,2-a]pyrimidine-6-carboxamide, trifluoroacetate] | < 0.5 | 0.5 to 2.5
19 | Cc1nc(N)ccc1CNC(=O)[C@@H]1CCc2ncc(NCc3cc(OC(F)(F)F)ccc3F)c(=O)n21 [Compound 41, (S)-N-((6-amino-2-methylpyridin-3-yl)methyl)-3-((2-fluoro-5-(trifluoromethoxy)benzyl)amino)-4-oxo-4,6,7,8-tetrahydro-pyrrolo[1,2-a]pyrimidine-6-carboxamide, di-trifluoroacetate] | < 0.5 | 0.5 to 2.5
